Test results from PMC12797170, “Potent Competitive Inhibitors of Ecto-5′-nucleotidase (CD73) based on 6‑(Het)aryl-7-deazapurine Ribonucleoside 5′‑O‑Bisphosphonates” (ACS Pharmacology & Translational Science, 2025).
Values after ≈ are worked out from the molar mass of the structure shown. Read-outs that look alike come from different tables or passages of the source.

Columns and labels:
[1] = In vivo pharmacokinetic study, intravenous; design: species or system male CD-1 mice; conditions: for half-life / clearance: plasma, 1 mg/kg; for half-life: footnote: t1/2 stability in plasma, text: half-life in mouse PK; for unbound plasma exposure relative to mouse CD73 Ki: mouse PK, unbound via mouse PPB, all time points
Summary of the method: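 Single intravenous dose in male CD-1 mice (n=3, 9 weeks, 29.2–33.7 g). Plasma levels measured by LC-MS/MS at 5, 15, 30, 60, 120, 240 and 480 min.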

[2] = Kinetic solubility in PBS; assay type: physicochemical; conditions: phosphate-buffered saline, pH 7.4, aqueous buffer, kinetic from dmso stock
Summary of the method: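 DMSO stocks diluted into PBS pH 7.4 to 100 μM and shaken 2 h at room temperature in duplicate, then filtered by centrifugation. Filtrates diluted 1:99 in 50% acetonitrile. Quantified by Echo-MS against calibration standards spanning 0.05–4 μM.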

CYP1A2 = biological target: T1, CYP1A2 (Homo sapiens, UniProt P05177); assay: In vitro CYP450 inhibition assay (Vivid); assay type: biochemical; conditions: probe fluorogenic Vivid CYP450 substrate (not named)
T1 construct: assay run by Bienta (Enamine Biology Services)
T1 sequence (P05177 2-516 limits assumed): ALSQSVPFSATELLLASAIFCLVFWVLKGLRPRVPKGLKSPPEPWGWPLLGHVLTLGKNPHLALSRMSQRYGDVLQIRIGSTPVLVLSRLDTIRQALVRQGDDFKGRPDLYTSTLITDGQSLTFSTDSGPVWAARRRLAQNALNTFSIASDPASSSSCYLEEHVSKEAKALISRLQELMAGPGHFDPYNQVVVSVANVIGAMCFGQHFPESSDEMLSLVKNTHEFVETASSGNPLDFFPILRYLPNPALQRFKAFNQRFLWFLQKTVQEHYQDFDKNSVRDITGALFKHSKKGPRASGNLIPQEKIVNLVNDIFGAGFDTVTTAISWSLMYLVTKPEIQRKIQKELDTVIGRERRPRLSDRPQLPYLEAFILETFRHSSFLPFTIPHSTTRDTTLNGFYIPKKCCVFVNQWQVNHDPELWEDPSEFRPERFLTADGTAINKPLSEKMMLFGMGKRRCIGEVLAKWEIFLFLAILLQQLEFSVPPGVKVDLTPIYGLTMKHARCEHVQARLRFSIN
Description: (§1) The study was performed by Bienta (Enamine Biology Services). The potential for CYP450 inhibition (isoforms 1A2, 2C9, 2C19, 2D6, and 3A4) was assessed by performing in vitro inhibition studies using fluorogenic CYP450 substrates with the corresponding CYP450 enzymes and NADPH regeneration system (Vivid CYP450 Screening Kits) with some minor changes to the manufacturer’s protocols. The fluorescent signal produced from the reaction is directly proportional to the cytochrome P450 activity. In the cases when tested compounds interfere with the CYP450 enzyme–substrate reaction, the fluorescent signal decreases.
(§2) Briefly, the tested compounds were first dissolved in DMSO at 100× concentration (1 mM) and diluted in buffer to 2.5× concentration (25 μM). […] After 10 min of preincubation, the enzymatic reaction was initiated by the addition of a mix of NADPH and the appropriate CYP450 substrates. The plate was incubated for the desired reaction time (25 min for CYP1A2, CYP2C9, CYP2D6, and CYP3A4; 60 min for CYP2C19) after which Stop Reagent was added and fluorescence measured using SpectraMax Paradigm Multi-Mode Microplate Reader. All test points were performed in quadruplicates at a concentration of 10 μM (1% DMSO).

CYP2C19 = biological target: T2, CYP2C19 (Homo sapiens, UniProt P33261); assay: In vitro CYP450 inhibition assay (Vivid); assay type: biochemical; conditions: probe fluorogenic Vivid CYP450 substrate (not named)
T2 construct: assay run by Bienta (Enamine Biology Services)
T2 sequence (P33261 whole entry): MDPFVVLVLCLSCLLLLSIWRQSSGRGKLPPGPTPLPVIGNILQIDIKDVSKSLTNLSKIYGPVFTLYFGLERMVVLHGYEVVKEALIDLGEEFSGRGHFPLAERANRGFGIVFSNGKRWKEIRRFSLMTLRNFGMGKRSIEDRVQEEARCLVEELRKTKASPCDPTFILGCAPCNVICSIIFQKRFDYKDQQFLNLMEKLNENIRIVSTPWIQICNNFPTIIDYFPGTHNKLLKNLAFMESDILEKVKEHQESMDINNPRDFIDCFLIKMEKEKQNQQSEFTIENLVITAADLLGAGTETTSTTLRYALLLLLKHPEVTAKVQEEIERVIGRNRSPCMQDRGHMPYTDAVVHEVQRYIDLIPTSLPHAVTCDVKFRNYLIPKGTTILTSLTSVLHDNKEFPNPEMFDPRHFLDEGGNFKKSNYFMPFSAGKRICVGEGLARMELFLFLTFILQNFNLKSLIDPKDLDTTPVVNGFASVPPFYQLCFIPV
Description: as §1, §2

CYP2C9 = biological target: T3, CYP2C9 (Homo sapiens, UniProt P11712); assay: In vitro CYP450 inhibition assay (Vivid); assay type: biochemical; conditions: probe fluorogenic Vivid CYP450 substrate (not named)
T3 construct: assay run by Bienta (Enamine Biology Services)
T3 sequence (P11712 whole entry): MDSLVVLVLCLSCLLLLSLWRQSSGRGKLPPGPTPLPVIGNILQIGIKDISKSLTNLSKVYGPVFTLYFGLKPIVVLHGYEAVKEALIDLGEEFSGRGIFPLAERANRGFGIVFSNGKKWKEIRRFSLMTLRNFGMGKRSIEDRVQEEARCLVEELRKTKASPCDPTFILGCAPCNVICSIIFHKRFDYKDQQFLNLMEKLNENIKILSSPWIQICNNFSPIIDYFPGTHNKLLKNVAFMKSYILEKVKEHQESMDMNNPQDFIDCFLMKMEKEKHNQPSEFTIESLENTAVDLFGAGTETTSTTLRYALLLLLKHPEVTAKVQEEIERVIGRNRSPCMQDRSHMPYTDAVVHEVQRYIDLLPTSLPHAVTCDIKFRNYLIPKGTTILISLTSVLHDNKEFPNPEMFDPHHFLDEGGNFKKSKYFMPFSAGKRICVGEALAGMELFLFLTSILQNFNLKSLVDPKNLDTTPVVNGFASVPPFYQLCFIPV
Description: as §1, §2

CYP2D6 = biological target: T4, CYP2D6 (Homo sapiens, UniProt P10635); assay: In vitro CYP450 inhibition assay (Vivid); assay type: biochemical; conditions: probe fluorogenic Vivid CYP450 substrate (not named)
T4 construct: assay run by Bienta (Enamine Biology Services)
T4 sequence (P10635 whole entry): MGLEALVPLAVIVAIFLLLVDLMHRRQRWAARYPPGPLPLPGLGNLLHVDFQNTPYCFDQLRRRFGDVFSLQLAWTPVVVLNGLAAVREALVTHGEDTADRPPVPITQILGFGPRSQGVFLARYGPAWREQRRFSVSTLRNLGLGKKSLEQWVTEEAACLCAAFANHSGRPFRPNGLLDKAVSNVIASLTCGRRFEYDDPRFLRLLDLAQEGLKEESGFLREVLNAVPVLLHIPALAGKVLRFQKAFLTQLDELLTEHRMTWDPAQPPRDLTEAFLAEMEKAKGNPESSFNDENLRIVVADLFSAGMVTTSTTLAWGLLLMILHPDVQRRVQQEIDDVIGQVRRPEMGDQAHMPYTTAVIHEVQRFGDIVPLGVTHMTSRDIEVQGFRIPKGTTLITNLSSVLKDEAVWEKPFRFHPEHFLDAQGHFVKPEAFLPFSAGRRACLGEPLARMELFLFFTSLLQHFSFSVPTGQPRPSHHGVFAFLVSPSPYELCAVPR
Description: as §1, §2

CYP3A4 = biological target: T5, CYP3A4 (Homo sapiens, UniProt P08684); assay: In vitro CYP450 inhibition assay (Vivid); assay type: biochemical; conditions: probe fluorogenic Vivid CYP450 substrate (not named)
T5 construct: assay run by Bienta (Enamine Biology Services)
T5 sequence (P08684 2-503 limits assumed): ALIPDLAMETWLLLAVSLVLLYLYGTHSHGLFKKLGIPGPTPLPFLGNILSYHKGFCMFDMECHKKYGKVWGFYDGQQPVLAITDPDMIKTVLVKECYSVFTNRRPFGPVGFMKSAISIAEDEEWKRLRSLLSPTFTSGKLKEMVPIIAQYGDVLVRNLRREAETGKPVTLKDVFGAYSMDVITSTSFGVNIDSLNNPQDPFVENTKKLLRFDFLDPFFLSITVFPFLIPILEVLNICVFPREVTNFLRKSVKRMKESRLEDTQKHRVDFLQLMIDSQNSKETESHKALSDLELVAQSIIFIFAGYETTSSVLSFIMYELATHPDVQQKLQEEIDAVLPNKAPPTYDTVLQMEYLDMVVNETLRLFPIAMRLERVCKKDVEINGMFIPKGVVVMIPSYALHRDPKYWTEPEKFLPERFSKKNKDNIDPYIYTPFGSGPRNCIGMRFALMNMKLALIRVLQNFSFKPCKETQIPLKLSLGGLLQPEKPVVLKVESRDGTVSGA
Description: as §1, §2

CCRF-CEM = assay: In vitro cytotoxic activity; assay type: cell-based; conditions: Homo sapiens
Description: (§3) All the compounds were also tested for their in vitro cytotoxic activity on a small panel of four cancer cell lines (CCRF-CEM, HepG2, HeLa S3, HL-60) and nonmalignant human dermal fibroblasts (NHDF).

HL-60 = assay: In vitro cytotoxic activity; assay type: cell-based; conditions: Homo sapiens
Description: as §3

HeLa S3 = assay: In vitro cytotoxic activity; assay type: cell-based; conditions: Homo sapiens
Description: as §3

HepG2 = assay: In vitro cytotoxic activity; assay type: cell-based; conditions: Homo sapiens
Description: as §3

[3] = system: nonmalignant human dermal fibroblasts (NHDF); assay: In vitro cytotoxic activity; assay type: cell-based
Description: as §3

[4] = system: MDA-MB-231 breast cancer cell line; assay: CellTox Green cytotoxicity assay; assay type: cell-based, human; conditions: 24 h
Description: MDA-MB-231 cells were harvested and counted using an automated cell counter. A total of 2,500 cells per well were seeded in 20 μL of phenol red-free complete RPMI medium into black 384-well plates. Five μL of CD73 inhibitors (final concentration: […]) or 5 μL PBS (negative control) were added to each well, except for wells designed as maximal signal (dead cell) controls. Plates were incubated for 24 h at 37 °C in a humidified CO2 incubator. To generate the maximum signal control, 5 μL of lysis buffer (CellTox Green Cytotoxicity Assay, Promega) was added to the dead cell controls, followed by a 30 min incubation at room temperature. Subsequently, 25 μL/well of CellTox Green Dye (diluted 1:500 in the assay buffer; Promega) was added. Plates were incubated in the dark on an orbital shaker at 500–700 rpm for 15 min. Fluorescence was measured using an Infinite M1000 plate reader (Tecan) with excitation at 485–500 nm and emission at 520–530 nm. Data were analyzed in GraphPad Prism 10.
Figure S2: Effect of CD73 inhibition on the viability of CD73-expressing breast cancer cell line. MDA-MB-231 cells were incubated with 10 µM CD73 inhibitors for 24 hours. Viability was assessed using the CellTox™ Green Cytotoxicity Assay.
± s.d. of technical triplicates (s.d., standard deviation).
(1 picture or pasted object on this page, not shown here)

[5] = male, CD-1, mouse, iv, intravenous
[6] = mouse, male CD-1 mice, intravenous, single dose, read-out: Cl (obs), observed clearance
[7] = male, CD-1, mouse, intravenous, in vivo PK in mice, unit inferred, read-out: clearance

Compound | half-life [1, 5] [h] | clearance ([1]; male, CD-1, mouse, iv, in vivo PK in mice, unit inferred, read-out: clearance) [mL/min/kg] | solubility at 2 h [2] [µM] | inhibition at 25 min, 10 µM (CYP1A2) [%] | inhibition at 60 min, 10 µM (CYP2C19) [%] | inhibition at 25 min, 10 µM (CYP2C9) [%] | inhibition at 25 min, 10 µM (CYP2D6) [%] | inhibition at 25 min, 10 µM (CYP3A4) [%] | clearance [1, 6] [mL/min/kg] | unbound plasma exposure relative to mouse CD73 Ki [1] | clearance [1, 7] [mL/min/kg] | IC50 (CCRF-CEM) [µM] | IC50 (HL-60) [µM] | IC50 (HeLa S3) [µM] | IC50 (HepG2) [µM] | IC50 [3] [µM] | in vitro cytotoxicity against MDA-MB-231 [4]
O=P(O)(O)CP(=O)(O)OC[C@H]1O[C@@H](n2ccc3c(-c4cccc5c4CCCC5)nc(Cl)nc32)[C@H](O)[C@@H]1O [7B.12] | 2.33 |  | 85 (≈ 48.8 µg/mL) | 0 | 10 | 15 | -13 | -8 | 0.88 |  |  | > 10 | > 10 | > 10 | > 10 | > 10 | nontoxic
O=P(O)(O)CP(=O)(O)OC[C@H]1O[C@@H](n2ccc3c(-c4ccc5c(c4)CCCC5)nc(Cl)nc32)[C@H](O)[C@@H]1O [7B.23] | 2.23 |  | 84 (≈ 48.2 µg/mL) | -17 | 3 | 21 | 6 | -23 | 3 |  |  | > 10 | 5.7 | > 10 | 9.3 | > 10 | nontoxic
O=P(O)(O)CP(=O)(O)OC[C@H]1O[C@@H](n2ccc3c(-c4ccc(F)c5ccccc45)nc(Cl)nc32)[C@H](O)[C@@H]1O [7B.28] | 1.8 |  | > 100 | 9 | 22 | 24 | -6 | 9 | 1.7 | well above |  | > 10 | > 10 | > 10 | > 10 | > 10 | nontoxic
Cc1nc(-c2ccc3ccccc3c2)c2ccn([C@@H]3O[C@H](COP(=O)(O)CP(=O)(O)O)[C@@H](O)[C@H]3O)c2n1 [18E.7] | 1.73 |  | 78 (≈ 42.9 µg/mL) |  |  |  |  |  | 4.6 |  |  | > 10 | > 10 | > 10 | > 10 | > 10 | nontoxic
O=P(O)(O)CP(=O)(O)OC[C@H]1O[C@@H](n2ccc3c(-c4ccc5c(c4)CCCC5)nc(I)nc32)[C@H](O)[C@@H]1O [27H.23, [(5-{[2-Iodo-4-(5,6,7,8-tetrahydronaphthalen-2-yl)-7H-pyrrolo[2,3-d]pyrimidin-7-yl]-β-D-ribofuranosyl}oxy)phosphonomethyl]phosphonic Acid] | 3.08 |  | > 100 | -4 | -7 | 11 | -12 | -23 | 3.1 |  | 3.1 | > 10 | > 10 | > 10 | > 10 | > 10 | nontoxic

Second part, led by results:

half-life [1, 5] [h] | clearance ([1]; male, CD-1, mouse, iv, in vivo PK in mice, unit inferred, read-out: clearance) [mL/min/kg] | solubility at 2 h [2] [µM] | inhibition at 25 min, 10 µM (CYP1A2) [%] | inhibition at 60 min, 10 µM (CYP2C19) [%] | inhibition at 25 min, 10 µM (CYP2C9) [%] | inhibition at 25 min, 10 µM (CYP2D6) [%] | inhibition at 25 min, 10 µM (CYP3A4) [%] | clearance [1, 6] [mL/min/kg] | unbound plasma exposure relative to mouse CD73 Ki [1] | clearance [1, 7] [mL/min/kg] | Compound | IC50 (CCRF-CEM) [µM] | IC50 (HL-60) [µM] | IC50 (HeLa S3) [µM] | IC50 (HepG2) [µM] | IC50 [3] [µM] | in vitro cytotoxicity against MDA-MB-231 [4]
4.2 | 4.1 | > 100 | 7 | 10 | 23 | -17 | -7 |  |  |  | O=P(O)(O)CP(=O)(O)OC[C@H]1O[C@@H](n2ccc3c(-c4ccc5ccccc5c4)ncnc32)[C@H](O)[C@@H]1O [4A.7] | > 10 | > 10 | > 10 | > 10 | > 10 | nontoxic
 |  | 56 (≈ 30 µg/mL) | 7 | 3 | 11 | -10 | -3 |  |  |  | O=P(O)(O)CP(=O)(O)OC[C@H]1O[C@@H](n2ccc3c(-c4cccc5ccncc45)ncnc32)[C@H](O)[C@@H]1O [4A.18] | > 10 | > 10 | > 10 | > 10 | > 10 | nontoxic
5.27 |  | 89 (≈ 48.9 µg/mL) | 8 | -20 | 12 | -18 | 0 | 0.32 | well above | 0.32 | Cc1nc(-c2cccc3ccccc23)c2ccn([C@@H]3O[C@H](COP(=O)(O)CP(=O)(O)O)[C@@H](O)[C@H]3O)c2n1 [18E.6] | > 10 | > 10 | > 10 | > 10 | > 10 | nontoxic
